Measured values: US12624019B2, “Indazole derivative, and preparation method therefor and use thereof” (Leadingtac Pharmaceutical (Shaoxing) Co., Ltd., priority 2020, dated 2026)

Columns and labels:
IKZF3 = target: T1, IKZF3 (Homo sapiens, UniProt Q96SW2+Q9UKT9); test: Degradation of IKZF3 in L363 cells by Western blot; assay type: cell-based; settings: compound 1000 nM, 16 hours
T1 construct: endogenous in cells; host or cells: L363 cells
Method: (§1) The 24-well cell culture plate was inoculated with 0.95 mL L363 cells (Nanjing Co-bioer) per well with a cell density of 6×10^5 cells/well. The cell plate was placed in a 5% carbon dioxide incubator and cultured at 37° C. for 8 hours, then 50 μL of compound solution was added. The final concentration of the compound was 1000 nM. After continuing to culture for 16 hours, the cells were collected into a 1.5 mL centrifuge tube and centrifuged at 3000 rpm and 4° C. for 5 minutes. Cell precipitation was washed twice with 1×DPBS, resuspended cells were lysed with 100 μL lysate (cell lysate was Western and IP cell lysate (Beyotime), supplemented with 1 mM mixture of phenylmethylsulfonyl fluoride and protease inhibitor (Beyotime)), left on ice for 30 minutes, then centrifuged at 14000 g at 4° C. for 10 minutes, and the supernatant was taken to detect IKZF1 and IKZF3 protein level by Western blot.
(§2) The total protein concentration in the supernatant of cell lysis was determined by BCA protein quantitative kit (Tiangen). According to the concentration of total protein detected by BCA, the supernatant was adjusted to […] with PBS and 5×SDS-PAGE protein loading buffer (Beyotime), bathed in water at 100° C. for 10 minutes, then placed in ice bath for 5 minutes, centrifuged at 14000 g and 4° C. for 5 minutes, and then collected as WB loading sample. Prefabricated glue (KeyGEN) was used for protein electrophoresis with a loading amount of 10 μL (total protein 2 μg). After Tris-MOPS-SDS electrophoresis solution (Adamas), 120V constant pressure electrophoresis was performed. After electrophoresis, the protein on the adhesive strip was transferred to PVDF membrane with a constant current of […] for 50 minutes. After the membrane was transferred, the membrane was incubated in 5% bovine serum albumin solution for 2 hours at room temperature. After blocking, PVDF membranes were incubated with IKZF1 primary antibody (CST) and IKZF3 primary antibody (Abcam) overnight at 4°, the membranes were washed with TBST buffer (2.4 g Tris, 8.8 g NaCl, 1.5 mL Tween 20, pH adjusted to 7.4, constant volume to 1 L) for 30 minutes, incubated with secondary antibody (Abcam) for 2 hours at room temperature, finally incubated with Clarity Western ECL Substrate (BIO-RAD) for 5 minutes for luminescence development, chemiluminescence imaging system (Clinx, chemiScope 6200 Touch) was used for development and protein mapping photography. The protein map was analyzed by Clinx chemiluminescence analysis software for grayscale values. Using the formula: grayscale correction value=(target protein grayscale value/corresponding internal reference grayscale value)×10^3, the grayscale correction value of each sample was calculated. The degradation rate was calculated by comparing with the grayscale correction value of the control group.

[1] = Pharmacokinetic study in mice; assay type: in vivo, SD mice
Method: The following experimental scheme was used to study the pharmacokinetic behavior of the compound of the present invention in mice and evaluate its pharmacokinetic characteristics.
Experimental scheme: 3 healthy SD mice, male, weighing […], were given 100 mg/kg compound by gavage with a volume of 10 mL/kg, prepared with […] (w/v). Before the test, they were fasted for 12 hours and freely drank water. Food was uniformly consumed 4 h after administration.
Three healthy SD mice, male, weighing […], were given 1 mg/kg compound intravenously with a volume of 5 mL/kg, prepared with 5% DMSO/15% solutol %80% PBS (w/v). Before the test, they were fasted for 12 hours and freely drank water. Food was uniformly consumed 4 h after administration.
0.1 mL of venous blood was taken through the submaxillary venous plexus of mice at 0.08 h, 0.25 h, 0.5 h, 1 h, 2 h, 4 h, 8 h, 24 h after gavage administration and 0.08 h, 0.25 h, 0.5 h, 1 h, 2 h, 4 h, 8 h, 24 h after intravenous administration, placed in a heparin test tube, centrifuged at 11000 rpm for 5 min, and plasma was separated, the concentration of compounds in plasma was determined by liquid chromatography-tandem mass spectrometry.

IKZF1 = target: T2, IKZF1 (Homo sapiens, UniProt Q13422+Q96SW2); test: Degradation of IKZF1 in L363 cells by Western blot; assay type: cell-based; settings: compound 1000 nM, 16 hours
T2 construct: endogenous in cells; host or cells: L363 cells
Method: as §1, §2

[2] = target: T3, IRAK4 kinase protein in THP-1 cells (Homo sapiens, UniProt Q9NWZ3); test: Degradation of IRAK4 in THP-1 cells by Western Blot; assay type: cell-based; settings: 24 hours; for Dmax / DC50: IRAK4 degradation in THP-1 cells; for Dmax: read-out: WB Dmax; for WB D(%) (300 nM) / WB D(%) (1000 nM): degradation percentage of IRAK4 in THP-1 cells; for WB D(%) (300 nM): compound 300 nM; for WB D(%) (1000 nM): compound 1000 nM; for DC50: read-out: WB DC50
T3 construct: endogenous in cells; host or cells: THP-1 cells
T3 sequence (Q9NWZ3 1-460): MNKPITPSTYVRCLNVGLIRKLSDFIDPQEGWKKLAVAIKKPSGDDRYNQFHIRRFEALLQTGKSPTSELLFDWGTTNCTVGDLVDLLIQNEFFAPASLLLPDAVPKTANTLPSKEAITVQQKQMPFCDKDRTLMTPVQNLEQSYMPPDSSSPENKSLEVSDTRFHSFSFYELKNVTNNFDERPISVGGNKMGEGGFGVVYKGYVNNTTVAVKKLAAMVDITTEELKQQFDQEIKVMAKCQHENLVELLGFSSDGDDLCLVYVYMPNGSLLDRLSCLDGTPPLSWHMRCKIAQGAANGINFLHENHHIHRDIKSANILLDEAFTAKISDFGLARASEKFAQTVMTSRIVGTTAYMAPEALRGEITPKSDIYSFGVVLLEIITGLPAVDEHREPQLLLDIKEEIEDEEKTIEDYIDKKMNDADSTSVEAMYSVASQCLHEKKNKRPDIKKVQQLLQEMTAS
Method: Each well of the 24-well cell culture plate was inoculated with 0.95 mL THP-1 cells (stem cell bank of Chinese academy of sciences) with a cell density of 5×10^5 cells/well. The cell plate was placed in a 5% carbon dioxide incubator and cultured overnight at 37° C., then 50 μL compound in dimethyl sulfoxide was added. The final concentration of the compound was in the range of 1-3000 nM. After continuous cultivation for 24 hours, the cells were collected into a 1.5 mL centrifuge tube, centrifuged at 1000 rpm and 4° C. for 5 minutes. Cell precipitation was washed twice with 1×DPBS, resuspended cells were lysed with 200 μL lysate (cell lysate was Western and IP cell lysate (Beyotime), supplemented with 1 mM mixture of phenylmethylsulfonyl fluoride and protease inhibitor (Beyotime)), left on ice for 30 minutes, then centrifuged at 14000 g at 4° C. for 10 minutes, and the supernatant was taken to detect IRAK4 protein level by Western blot.
The total protein concentration in the supernatant of cell lysis was determined by BCA protein quantitative kit (Tiangen). According to the concentration of total protein detected by BCA, the supernatant was adjusted to […] with PBS and 5×SDS-PAGE protein loading buffer (Beyotime), bathed in water at 100° C. for 10 minutes, then placed in ice bath for 5 minutes, centrifuged at 14000 g and 4° C. for 5 minutes, and then collected as WB loading sample. Prefabricated glue (KeyGEN) was used for protein electrophoresis with a loading amount of 10 μL (total protein 2 μg). After Tris-MOPS-SDS electrophoresis solution (Adamas), 120V constant pressure electrophoresis was performed. After electrophoresis, the protein on the adhesive strip was transferred to PVDF membrane with a constant current of […] for 50 minutes. After the membrane was transferred, the membrane was added in 1×QuickBlock blocking buffer (Beyotime) and incubated for 30 minutes at room temperature. After blocking, PVDF membranes were incubated with IRAK4 primary antibody (Abcam) overnight at 4°, the membranes were washed with TBST buffer (2.4 g Tris, 8.8 g NaCl, 1.5 mL Tween 20, pH adjusted to 7.4, constant volume to 1 L) for 30 minutes, incubated with secondary antibody (Abcam) for 2 hours at room temperature, finally incubated with Clarity Western ECL Substrate (BIO-RAD) for 5 minutes for luminescence development, chemiluminescence imaging system (Clinx, chemiScope 6200 Touch) was used for development and protein mapping photography. The protein map was analyzed by Clinx chemiluminescence analysis software for grayscale values. Using the formula: grayscale correction value=(target protein grayscale value/corresponding internal reference grayscale value)×[…], the grayscale correction value of each sample was calculated. The degradation rate was calculated by comparing with the grayscale correction value of the control group. Furthermore, DC50 and Dmax values of the compound were obtained by the nonlinear curve fitting with the logarithmic concentration-inhibition rate by GraphPad Prism 7.

IRAK4 kinase = target: T4, IRAK4 kinase (Homo sapiens, UniProt Q9NWZ3); test: IRAK4 kinase activity test (KinEASE-STK HTRF kit); assay type: biochemical; settings: IRAK4 kinase inhibition, 7 μM ATP, 37° C. 120 min
T4 sequence (Q9NWZ3 1-460): T3 sequence (Q9NWZ3 1-460)
Method: KinEASE-STK Si serine/threonine kinase kit (Cisbio) was used to detect the inhibitory effect of the compound on IRAK4 kinase activity. The specific method was: the compound was dissolved in dimethyl sulfoxide, and then it was diluted with the buffer solution of the kit by equal gradient to make the final concentration range of the tested compound in the reaction system 10000 nM-0.038 nM, then 2.5 nM kinase, 1 μM biotinylated polypeptide substrate and 7 μM adenosine triphosphate (ATP) were added in sequence and incubated at 37° C. for 120 min. Subsequently, anti-phosphorylated serine/threonine antibody coupled with europium element compound and modified XL665 streptavidin were added to the reaction system to terminate the reaction. After incubating at room temperature for 1 h, the fluorescence intensity of each well at the emission wavelength of 620 nm and 665 nm and the excitation wavelength of 337 nm was determined in HTRF mode on the microplate reader EnVision (PerkinElmer), the ratio value was calculated using the formula Ratio=(665 nm/620 nm)×10^4. By comparing with the fluorescence intensity ratio of the control group, the inhibition rate of the compound at each concentration was calculated, and then the IC50 value of the compound was obtained by fitting the nonlinear curve with the logarithmic concentration-inhibition rate by GraphPad Prism 7.

[3] = male, SD, mouse, po, gavage administration 100 mg/kg, plasma

T1 sequence (Q9UKT9 whole entry): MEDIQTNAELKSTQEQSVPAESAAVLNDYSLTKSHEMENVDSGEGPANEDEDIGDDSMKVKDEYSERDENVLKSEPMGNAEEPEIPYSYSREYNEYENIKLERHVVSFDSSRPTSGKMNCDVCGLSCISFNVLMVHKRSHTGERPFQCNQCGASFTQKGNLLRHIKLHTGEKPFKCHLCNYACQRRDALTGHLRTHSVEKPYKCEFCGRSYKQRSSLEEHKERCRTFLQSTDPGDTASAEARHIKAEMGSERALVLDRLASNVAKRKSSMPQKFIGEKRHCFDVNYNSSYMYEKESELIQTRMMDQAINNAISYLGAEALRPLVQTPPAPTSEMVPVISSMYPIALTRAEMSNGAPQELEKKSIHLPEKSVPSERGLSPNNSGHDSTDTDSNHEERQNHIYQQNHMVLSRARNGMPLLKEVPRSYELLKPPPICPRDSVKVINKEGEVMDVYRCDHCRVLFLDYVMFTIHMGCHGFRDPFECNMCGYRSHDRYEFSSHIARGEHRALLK
T1 sequence (Q96SW2 whole entry): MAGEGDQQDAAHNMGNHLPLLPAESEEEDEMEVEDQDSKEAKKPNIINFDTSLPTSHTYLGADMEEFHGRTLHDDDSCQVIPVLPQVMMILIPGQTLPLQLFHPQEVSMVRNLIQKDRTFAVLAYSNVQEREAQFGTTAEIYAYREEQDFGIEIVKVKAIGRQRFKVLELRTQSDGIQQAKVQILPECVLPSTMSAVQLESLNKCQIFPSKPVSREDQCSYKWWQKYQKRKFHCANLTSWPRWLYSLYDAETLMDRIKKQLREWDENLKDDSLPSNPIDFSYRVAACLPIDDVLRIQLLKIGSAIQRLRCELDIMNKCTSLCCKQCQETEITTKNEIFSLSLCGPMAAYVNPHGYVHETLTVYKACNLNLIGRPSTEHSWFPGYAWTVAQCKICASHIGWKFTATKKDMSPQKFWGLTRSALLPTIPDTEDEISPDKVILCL
T1 sequence (Q16531 whole entry partner): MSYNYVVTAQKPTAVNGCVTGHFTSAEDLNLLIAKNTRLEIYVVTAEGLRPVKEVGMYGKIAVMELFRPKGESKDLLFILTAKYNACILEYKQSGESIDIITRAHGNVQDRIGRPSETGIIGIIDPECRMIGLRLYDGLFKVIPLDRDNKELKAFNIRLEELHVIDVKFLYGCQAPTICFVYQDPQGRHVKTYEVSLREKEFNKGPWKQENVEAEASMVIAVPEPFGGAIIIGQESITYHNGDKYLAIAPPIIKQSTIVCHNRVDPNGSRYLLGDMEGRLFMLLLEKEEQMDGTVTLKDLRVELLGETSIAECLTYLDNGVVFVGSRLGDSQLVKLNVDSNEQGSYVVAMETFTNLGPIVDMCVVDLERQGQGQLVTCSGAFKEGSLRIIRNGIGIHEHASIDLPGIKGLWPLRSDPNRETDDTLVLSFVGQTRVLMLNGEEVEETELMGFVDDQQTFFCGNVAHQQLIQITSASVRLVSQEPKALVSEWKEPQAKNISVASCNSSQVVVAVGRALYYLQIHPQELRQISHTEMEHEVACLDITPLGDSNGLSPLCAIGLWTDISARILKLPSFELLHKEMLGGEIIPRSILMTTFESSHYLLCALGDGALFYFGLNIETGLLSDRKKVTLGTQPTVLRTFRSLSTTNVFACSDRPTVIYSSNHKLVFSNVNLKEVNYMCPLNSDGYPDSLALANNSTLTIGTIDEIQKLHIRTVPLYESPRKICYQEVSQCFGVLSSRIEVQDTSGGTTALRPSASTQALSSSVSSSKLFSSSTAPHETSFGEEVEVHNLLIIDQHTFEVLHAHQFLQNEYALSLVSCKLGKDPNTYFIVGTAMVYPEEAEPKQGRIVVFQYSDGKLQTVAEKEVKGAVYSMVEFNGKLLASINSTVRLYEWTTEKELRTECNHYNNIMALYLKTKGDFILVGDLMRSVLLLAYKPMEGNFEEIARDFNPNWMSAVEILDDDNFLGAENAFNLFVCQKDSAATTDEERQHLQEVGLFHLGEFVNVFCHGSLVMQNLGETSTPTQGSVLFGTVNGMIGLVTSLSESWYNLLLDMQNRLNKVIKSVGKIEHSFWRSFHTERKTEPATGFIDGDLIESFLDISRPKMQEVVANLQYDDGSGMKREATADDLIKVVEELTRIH
T2 sequence (Q13422 whole entry): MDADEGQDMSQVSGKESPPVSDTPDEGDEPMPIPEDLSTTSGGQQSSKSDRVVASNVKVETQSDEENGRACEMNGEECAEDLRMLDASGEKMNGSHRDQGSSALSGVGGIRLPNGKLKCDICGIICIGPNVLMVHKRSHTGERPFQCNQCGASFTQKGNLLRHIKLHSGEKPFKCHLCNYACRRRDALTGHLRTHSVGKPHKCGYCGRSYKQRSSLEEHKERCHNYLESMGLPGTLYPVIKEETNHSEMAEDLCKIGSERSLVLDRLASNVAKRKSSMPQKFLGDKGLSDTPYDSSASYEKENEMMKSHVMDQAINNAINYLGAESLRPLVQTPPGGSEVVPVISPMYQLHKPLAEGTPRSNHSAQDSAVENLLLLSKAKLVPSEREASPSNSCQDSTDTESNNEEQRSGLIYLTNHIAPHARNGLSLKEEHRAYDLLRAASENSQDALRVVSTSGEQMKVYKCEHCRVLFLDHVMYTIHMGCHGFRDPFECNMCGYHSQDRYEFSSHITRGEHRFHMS
T2 sequence (Q96SW2 whole entry): as the sequence (Q96SW2 whole entry) above
T2 sequence (Q16531 whole entry partner): as the sequence (Q16531 whole entry partner) above

Row | IKZF3 degradation rate (%) (IKZF3) | CL_pred ([1]; intravenous injection 1 mg/kg) [L/h/kg] | Vss_pred ([1]; intravenous injection 1 mg/kg) [L/kg] | AUC(0-t) ([1]; male, SD, mouse, intravenous injection 1 mg/kg, plasma) [ng·h/mL] | bioavailability ([1]; male, SD, mouse, plasma, po, gavage 100 mg/kg vs intravenous 1 mg/kg) [%] | AUC(0-t) [1, 3] [ng·h/mL] | Cmax [1, 3] [ng/mL] | IKZF1 degradation rate (%) (IKZF1) | Dmax [2] [%] | WB D(%) (300 nM) [2] | WB D(%) (1000 nM) [2] | IC50 (IRAK4 kinase) [nM] | DC50 [2] [nM] | Compound
1 | 92.8 ± 5.0 |  |  |  |  |  |  | 97.2 ± 2.6 |  |  |  |  |  | CN(CC1CCN(c2cccc3c2C(=O)N(C2CCC(=O)NC2=O)C3=O)CC1)C[C@H]1CC[C@H](n2cc3cc(NC(=O)c4cccc(C(F)(F)F)n4)c(C(C)(C)O)cc3n2)CC1 (some centres unmarked) [Control group 3, N-(2-((1r,4r)-4-((((1-(2-(2,6-dioxopiperidin-3-yl)-1,3-dioxoisoindolin-4-yl)piperidin-4-yl)methyl)(methyl)amino)methyl)cyclohexyl)-6-(2-hydroxyprop-2-yl)-2H-indazol-5-yl)-6-(trifluoromethyl) pyridinecarboxamide, reference compound]
2 | 22.4 ± 6.6 |  |  |  |  |  |  | 18.8 ± 2.7 | 92.4 | 91.3 | 89.5 | 41.1 | 12.1 | CC(C)(O)c1cc2nn(C3CCN(CCC4CCN(c5ccc6c(c5)C(=O)N(C5CCC(=O)NC5=O)C6=O)CC4)CC3)cc2cc1NC(=O)c1cccc(C(F)(F)F)n1 (centres unmarked) [Example 5, N-(2-(1-(2-(1-(2-(2,6-dioxopiperidin-3-yl)-1,3-dioxoisoindolin-5-yl)piperidin-4-yl)ethyl)piperidin-4-yl)-6-(2-hydroxyprop-2-yl)-2H-indazol-5-yl)-6-(trifluoromethyl) pyridinecarboxamide]

Second part, the compound before the results:

Row | Compound | IKZF3 degradation rate (%) (IKZF3) | CL_pred ([1]; intravenous injection 1 mg/kg) [L/h/kg] | Vss_pred ([1]; intravenous injection 1 mg/kg) [L/kg] | AUC(0-t) ([1]; male, SD, mouse, intravenous injection 1 mg/kg, plasma) [ng·h/mL] | bioavailability ([1]; male, SD, mouse, plasma, po, gavage 100 mg/kg vs intravenous 1 mg/kg) [%] | AUC(0-t) [1, 3] [ng·h/mL] | Cmax [1, 3] [ng/mL] | IKZF1 degradation rate (%) (IKZF1) | Dmax [2] [%] | WB D(%) (300 nM) [2] | WB D(%) (1000 nM) [2] | IC50 (IRAK4 kinase) [nM] | DC50 [2] [nM]
3 | COc1cc2nn(C3CCN(CC4CCN(CCOc5ccc6c(c5)C(=O)N(C5CCC(=O)NC5=O)C6=O)CC4)CC3)cc2cc1NC(=O)c1cccc(C(F)(F)F)n1 (centres unmarked) [Control group 2, N-(2-(1-((1-(2-((2-(2,6-dioxopiperidin-3-yl)-1,3-dioxoisoindol-5-yl)oxy)ethyl)piperidin-4-yl)methyl)piperidin-4-yl)-6-methoxy-2H-indazol-5-yl)-6-(trifluoromethyl) pyridinecarboxamide, reference compound] | 71.2 ± 5.7 | 5.5 | 109.4 | 122 | 14 | 1720 | 150 | 47.5 ± 9.7 | 85.1 | 79.7 | 85.7 |  | 
4 | CC(C)(O)c1cc2nn(C3CCN(CCN4CCN(c5ccc6c(c5)C(=O)N(C5CCC(=O)NC5=O)C6=O)CC4)CC3)cc2cc1NC(=O)c1cccc(C(F)(F)F)n1 (centres unmarked) [Example 4, N-(2-(1-(2-(4-(2-(2,6-dioxopiperidin-3-yl)-1,3-dioxoisoindolin-5-yl)piperazin-1-yl)ethyl)piperidin-4-yl)-6-(2-hydroxyprop-2-yl)-2H-indazol-5-yl)-6-(trifluoromethyl) pyridinecarboxamide] | −4.5 ± 2.9 |  |  |  |  |  |  | 4.3 ± 0.8 | 99.9 | 99.5 | 99.9 | 17.8 | 1.7
5 | Nc1cccc2c1C(=O)N(C1CCC(=O)NC1=O)C2=O (centres unmarked) [Pomalidomide, reference compound] | 98.6 ± 0.6 |  |  |  |  |  |  | 99.7 ± 0.2 |  |  |  |  | 
